# Measurements from PubChem BioAssay (NCI).
#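 Following 48 hours of exposure in 96-well plates, responses at five concentrations were used to interpolate endpoints linearly. GI50 marks 50% less growth. Definition used: TGI = concentration required for complete inhibition of growth.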
# Legend:
# Assay in all cases: DTP human tumour cell line panel, 48 h
# [1] = system: 786-0 renal
# [2] = system: A498 renal
# [3] = system: A549 NSCLC
# [4] = system: ACHN renal
# [5] = system: BT-549 breast
# [6] = system: CAKI-1 renal
# [7] = system: CCRF-CEM leukemia
# [8] = system: COLO 205 colon
# [9] = system: DU-145 prostate
# [10] = system: EKVX NSCLC
# [11] = system: HCC-2998 colon
# [12] = system: HCT-116 colon
# [13] = system: HCT-15 colon
# [14] = system: HL-60(TB) leukemia
# [15] = system: HOP-62 NSCLC
# [16] = system: HOP-92 NSCLC
# [17] = system: HS 578T breast
# [18] = system: HT29 colon
# [19] = system: IGROV1 ovarian
# [20] = system: K-562 leukemia
# [21] = system: KM12 colon
# [22] = system: M14 melanoma
# [23] = system: MALME-3M melanoma
# [24] = system: MCF7 breast
# [25] = system: MDA-MB-231 breast
# [26] = system: MDA-MB-435
# [27] = system: MOLT-4 leukemia
# [28] = system: NCI-H226 lung
# [29] = system: NCI-H23 lung
# [30] = system: NCI-H460 lung
# [31] = system: NCI-H522 lung
# [32] = system: NCI/ADR-RES ovarian
# [33] = system: OVCAR-4 ovarian
# [34] = system: OVCAR-5 ovarian
# [35] = system: OVCAR-8 ovarian
# [36] = system: PC-3 prostate
# [37] = system: RPMI-8226 leukemia
# [38] = system: RXF 393 renal
# [39] = system: SF-268 CNS
# [40] = system: SF-295 CNS
# [41] = system: SF-539 CNS
# [42] = system: SK-MEL-2 melanoma
# [43] = system: SK-MEL-28 melanoma
# [44] = system: SK-MEL-5 melanoma
# [45] = system: SK-OV-3 ovarian
# [46] = system: SN12C renal
# [47] = system: SNB-19 CNS
# [48] = system: SNB-75 CNS
# [49] = system: SR leukemia
# [50] = system: SW-620 colon
# [51] = system: T-47D breast
# [52] = system: TK-10 renal
# [53] = system: U251 CNS
# [54] = system: UACC-257 melanoma
# [55] = system: UACC-62 melanoma
# [56] = system: UO-31 renal
structure (smiles),measurement,setting,value
Nc1cc(F)ccc1NC(=O)c1ccc(NC(=O)C/C=C/c2cccnc2)cn1,GI50,[1],2200 nM
same,TGI,[1],> 50000 nM
same,GI50,[2],937 nM
same,TGI,[2],3370 nM
same,GI50,[3],3020 nM
same,TGI,[3],> 50000 nM
same,GI50,[4],2210 nM
same,TGI,[4],> 50000 nM
same,GI50,[5],1300 nM
same,TGI,[5],8310 nM
same,GI50,[6],1880 nM
same,TGI,[6],13800 nM
same,GI50,[7],200 nM
same,TGI,[7],> 50000 nM
same,GI50,[8],576 nM
same,TGI,[8],10400 nM
same,GI50,[9],1100 nM
same,TGI,[9],5160 nM
same,GI50,[10],2490 nM
same,TGI,[10],> 50000 nM
same,GI50,[11],1430 nM
same,TGI,[11],6980 nM
same,GI50,[12],186 nM
same,TGI,[12],3420 nM
same,GI50,[13],667 nM
same,TGI,[13],> 50000 nM
same,GI50,[14],525 nM
same,TGI,[14],> 50000 nM
same,GI50,[15],1990 nM
same,TGI,[15],> 50000 nM
same,GI50,[16],699 nM
same,TGI,[16],10900 nM
same,GI50,[17],1300 nM
same,TGI,[17],> 50000 nM
same,GI50,[18],1500 nM
same,TGI,[18],> 50000 nM
same,GI50,[19],804 nM
same,TGI,[19],> 50000 nM
same,GI50,[20],302 nM
same,TGI,[20],> 50000 nM
same,GI50,[21],2800 nM
same,TGI,[21],> 50000 nM
same,GI50,[22],563 nM
same,TGI,[22],> 50000 nM
same,GI50,[23],465 nM
same,TGI,[23],4810 nM
same,GI50,[24],1110 nM
same,TGI,[24],10000 nM
same,GI50,[25],8610 nM
same,TGI,[25],> 50000 nM
same,GI50,[26],1250 nM
same,TGI,[26],7180 nM
same,GI50,[27],908 nM
same,TGI,[27],> 50000 nM
same,GI50,[28],2300 nM
same,TGI,[28],> 50000 nM
same,GI50,[29],1680 nM
same,TGI,[29],37900 nM
same,GI50,[30],1430 nM
same,TGI,[30],> 50000 nM
same,GI50,[31],629 nM
same,TGI,[31],30000 nM
same,GI50,[32],1310 nM
same,TGI,[32],> 50000 nM
same,GI50,[33],2210 nM
same,TGI,[33],> 50000 nM
same,GI50,[34],781 nM
same,TGI,[34],> 50000 nM
same,GI50,[35],147 nM
same,TGI,[35],> 50000 nM
same,GI50,[36],1110 nM
same,TGI,[36],> 50000 nM
same,GI50,[37],240 nM
same,TGI,[37],2050 nM
same,GI50,[38],938 nM
same,TGI,[38],3480 nM
same,GI50,[39],2240 nM
same,TGI,[39],> 50000 nM
same,GI50,[40],1800 nM
same,TGI,[40],7360 nM
same,GI50,[41],177 nM
same,TGI,[41],4000 nM
same,GI50,[42],2010 nM
same,TGI,[42],> 50000 nM
same,GI50,[43],1350 nM
same,TGI,[43],4230 nM
same,GI50,[44],960 nM
same,TGI,[44],1900 nM
same,GI50,[45],2580 nM
same,TGI,[45],> 50000 nM
same,GI50,[46],364 nM
same,TGI,[46],> 50000 nM
same,GI50,[47],2150 nM
same,TGI,[47],> 50000 nM
same,GI50,[48],794 nM
same,TGI,[48],47300 nM
same,GI50,[49],876 nM
same,TGI,[49],> 50000 nM
same,GI50,[50],208 nM
same,TGI,[50],12500 nM
same,GI50,[51],750 nM
same,TGI,[51],> 50000 nM
same,GI50,[52],673 nM
same,TGI,[52],8160 nM
same,GI50,[53],1510 nM
same,TGI,[53],> 50000 nM
same,GI50,[54],1650 nM
same,TGI,[54],> 50000 nM
same,GI50,[55],1310 nM
same,TGI,[55],5950 nM
same,GI50,[56],1630 nM
same,TGI,[56],> 50000 nM
